According to article PMC11036078, “PD‐1 inhibition with retifanlimab and/or arginase inhibition with INCB001158 in Japanese patients with solid tumors: A phase I study” (Cancer Medicine, 2024):
Read-outs that look alike come from different tables or passages of the source.

Columns and labels:
[1] = tested on: advanced/metastatic solid tumours; conditions: cited from earlier work
urea cycle = assay: Pharmacodynamics: urinary orotic acid and plasma ammonia (urea cycle inhibition); type: in vivo, Japanese patients
Protocol: Pharmacodynamics of INCB001158 alone or in combination were assessed as an exploratory objective. Urine was collected at regular intervals from patients in the INCB001158 monotherapy and combination groups to assess urinary orotic acid levels and evaluate whether INCB001158 inhibits the urea cycle. Plasma samples from patients in these groups were also assessed for ammonia, arginine, and ornithine levels.

tumor growth = tested on: tumor growth; parameters: method as in PMID 29254508; conditions: preclinical; cited from earlier work
[2] = Safety and tolerability (TEAEs, DLTs, irAEs; NCI CTCAE v5.0), phase Ib POD1UM-104; conditions: in vivo
Protocol: This was a phase Ib, open‐label, multicenter study (POD1UM‐104 [NCT03910530]). The study was conducted in 2 parts. In Part 1, patients received single‐agent retifanlimab or escalating doses of single‐agent INCB001158 to confirm the RP2D of each agent. Single‐agent dosing was performed to comply with local regulations. In Part 2, patients received the combination of retifanlimab and INCB001158 at their respective RP2D determined in Part 1, to further explore safety and preliminary evidence of clinical activity. Treatment cycles in Part 1 and Part 2 were 28 days, and patients could receive treatment for up to 2 years, or until disease progression, unacceptable toxicity, death, or patient withdrawal.
In Part 1, 6 patients received retifanlimab 500 mg every 4 weeks (Q4W), given as an i.v. infusion over 60 min; this dose was based on the RP2D determined from global studies. The starting dose of INCB001158 was 75 mg taken orally twice daily (BID). Dose escalation of INCB001158 followed a standard 3 + 3 design; if 75 mg BID was deemed to be tolerable in at least 3 patients, a 100‐mg BID dose level cohort comprising at least 3 patients would be opened.
DLTs were assessed by the investigator according to the National Cancer Institute (NCI) Common Terminology Criteria for Adverse Events (CTCAE) v5.0 criteria (Table S1).
The primary endpoints of the study were safety, tolerability, DLTs, and RP2D of single‐agent retifanlimab, INCB001158, and the combination. Adverse events (AEs) were graded by NCI CTCAE v5.0, and immune‐related adverse events (irAEs) were monitored as AEs of special interest. Physical examinations, monitoring of vital signs, electrocardiograms, and laboratory assessments were conducted throughout the study.
Safety and efficacy analyses were conducted in the full analysis set, which comprised all enrolled patients who received at least 1 dose of the study drug.
Safety data were summarized using descriptive statistics. PK parameters were summarized by study part, treatment regimen, cohort, dose levels, and/or visit. ORR and DCR were reported with their exact 95% confidence intervals (CIs); DOR was based on the Kaplan–Meier estimate of the distribution function, and the estimated median along with 95% CI was reported. Statistical analyses were performed using SAS® software v9.4 or later (SAS Institute Inc., Cary, NC, USA).

arginase = tested on: arginase; parameters: method as in earlier work; conditions: phase I/II studies; cited from earlier work
[3] = INCB001158 plasma pharmacokinetics (LC-MS/MS, noncompartmental analysis); type: in vivo, Japanese patients; conditions: for Cmax: read-out: INCB001158 geometric mean Cmax
Protocol: Pharmacokinetics of single‐agent retifanlimab and INCB001158, and the combination, were secondary endpoints of the study. The detection of anti‐drug antibodies (ADAs) was an exploratory endpoint. Blood samples for retifanlimab PK assessments were taken on days 1 (−2 h pre‐dose, end of infusion, and 6 h post‐dose), 2, 8, and 15 (no specified time) of cycle 1, day 1 of cycles 2–8 (−2 h pre‐dose, and end of infusion on cycles 2 and 6 only), and day 1 of every 4 cycles after cycle 8 (−2 h pre‐dose). Samples for ADA assessment were collected at the same time as for PK analysis, and an additional sample was collected at safety follow‐up on day 15 (no specified time). Blood samples for INCB001158 were collected pre‐dose, 0.5, 1, 2, 4, 6, and 8 h post‐dose on days 1 and 15 of cycle 1, 12 h post‐dose on day 1 of cycle 1, and pre‐dose on days 2 and 8 for cycle 1, and day 1 of cycle 2. Serum concentrations of retifanlimab were determined using an electrochemiluminescence immunoassay method, and plasma concentrations of INCB001158 were measured using a validated liquid chromatography with tandem mass spectrometry assay (Incyte Corporation, Wilmington, DE, USA). ADAs against retifanlimab were monitored using a bridging immunoassay (Incyte Corporation).
Pharmacokinetics parameters were derived from concentrations versus time data using model‐independent noncompartmental analysis methods (WinNonlin v8.2, Certara USA Inc., Princeton, NJ, USA), and included maximum observed serum or plasma concentration (C max), serum or plasma concentration observed at the end of the dosing interval (C tau), time to maximum observed serum or plasma concentration (t max), area under the serum or plasma concentration–time curve (AUC) from time 0 to the end of the dosing interval (AUCtau), AUC from time 0 to infinity (AUC0‐∞), apparent terminal‐phase disposition half‐life, clearance, and volume of distribution. […]

T‐cell proliferation = tested on: T‐cell proliferation; parameters: method as in PMID 29254508; conditions: preclinical; cited from earlier work
[4] = INCB001158 monotherapy, 33 patients with microsatellite‐stable metastatic colorectal cancer
[5] = in combination with gemcitabine/cisplatin, phase I/II, advanced biliary tract cancer
[6] = in combination with pembrolizumab, 43 patients with microsatellite‐stable colorectal cancer
[7] = steady-state, 100 mg BID oral, monotherapy: two individual values (n = 2), combination n = 5 mean ± SD (geometric mean)

## C[C@H](N)C(=O)N1C[C@H](CCCB(O)O)[C@](N)(C(=O)O)C1 [INCB001158]
[1]; [4]
  DCR: 27%
  Number of PRs: 1
[1]; [5]
  ORR: 24%
  Patients with SD: 42%
[1]; [6]
  DCR: 30%
  Number of PRs: 3
Urea cycle; change from baseline
  Urine orotic acid: no marked rises
Urea cycle; e.g., unexplained anorexia, nausea, vomiting
  Symptoms of significant urea cycle inhibition: no symptoms
Urea cycle; patients receiving INCB001158
  Plasma ammonia: no concurrent increases
  Urea cycle inhibition: no evidence of consistent urea cycle inhibition
Tumor growth
  Antitumor activity in mouse models: demonstrated antitumor activity
  Tumor growth when combined with ICB: synergistically inhibited tumor growth
[2]; human
  Serious TEAEs (terms): grade 2 inguinal hernia (n = 1)
  TEAE: ALT increased: 0 n (%)
  TEAE: AST increased: 0 n (%)
  TEAE: Amylase increased: 0 n (%)
  TEAE: Anemia: 1 (16.7) n (%)
  TEAE: Blood creatinine increased: 0 n (%)
  TEAE: Diarrhea: 1 (16.7) n (%)
  TEAE: Nausea: 0 n (%)
  TEAE: Pruritus: 0 n (%)
  TEAE: Pyrexia: 0 n (%)
  TEAE: Rash: 0 n (%)
  TRAEs reported (terms): diarrhea (n = 1) and anemia and hyperbilirubinemia (n = 1)
  Treatment discontinuation because of a TEAE: 0 n (%)
[2]
  Grade 3 AEs reported but not occurring during the treatment window: anemia
arginase
  Plasma arginine levels: increase in plasma arginine levels
[3]; Japanese patients
  PK of INCB001158 in combination with retifanlimab versus INCB001158 monotherapy: comparable
[3]; combination cohort
  Drug–drug interaction (INCB001158 PK, combination vs monotherapy cohorts): no drug–drug interaction
[3]; human, plasma, oral, 100 mg, first dose, 100 mg BID monotherapy, read-out: INCB001158 geometric mean AUC0‐∞
  AUC: 17900 ng·h/mL
[3]; human, plasma, oral, 100 mg, first dose, 100 mg BID monotherapy, read-out: INCB001158 geometric mean AUCtau
  AUC: 13700 ng·h/mL
[3]; human, plasma, oral, 100 mg, first dose, 100 mg BID monotherapy
  Cmax: 1740 ng/mL
[3]; human, plasma, oral, 100 mg, first dose, 100 mg BID monotherapy, read-out: INCB001158 median tmax
  Tmax: 3.9 h
[3]; human, plasma, oral, 100 mg, steady‐state, 100‐mg BID monotherapy, read-out: INCB001158 geometric mean AUCtau
  AUC: 23200 ng·h/mL
[3]; human, plasma, oral, 100 mg, steady‐state, 100‐mg BID monotherapy
  Cmax: 2690 ng/mL
[3]; human, plasma, oral, 100 mg, steady‐state, 100‐mg BID monotherapy, read-out: INCB001158 median tmax
  Tmax: 3.8 h
[3]; human, plasma, po, 75 mg, first dose, 75 mg BID oral, n = 3, median (min, max), read-out: INCB001158 tmax
  Tmax: 3.9 h
[3]; human, plasma, po, 75 mg, steady-state, 75 mg BID oral, n = 3, median (min, max), read-out: INCB001158 tmax
  Tmax: 3.9 h
[3]; human, plasma, po, 100 mg, first dose, 100 mg BID oral, monotherapy n = 3, combination n = 6, median (min, max), read-out: INCB001158 tmax
  Tmax: 3.9 h
[3]; human, plasma, po, 100 mg, steady-state, 100 mg BID oral, monotherapy n = 3, combination n = 5, median (min, max), read-out: INCB001158 tmax
  Tmax: 3.8 h
[3]; human, plasma, po, 100 mg, steady-state, 100 mg BID oral, monotherapy: two individual values (n = 2), combination n = 5 mean ± SD (geometric mean), read-out: INCB001158 Vz/F
  Vd/F: 44.9 L
[3]; human, plasma, po, 100 mg, steady-state, 100 mg BID oral, monotherapy: two individual values (n = 2), combination n = 5 mean ± SD (geometric mean), read-out: INCB001158 t½ (converted)
  half-life: 6.25 h
[3]; [7]
  INCB001158 Vz/F: 39.3 L
  INCB001158 t½: 5.50 h
[3]; steady‐state, 100‐mg BID monotherapy
  INCB001158 geometric mean Ctau: 1130 ng/mL
T‐cell proliferation
  T‐cell proliferation in the presence of inhibitory granulocytes: restored T‐cell proliferation
